{"source": "patent US10584346B2", "about": "“HSF-like transcription factor, TBF1, is a major molecular switch for growth-to-defense transition in plants” (Duke University, priority 2011, dated 2020)", "key": {"TBF1 promoter": {"system": "TBF1 promoter", "test": "Induction of the TBF1 promoter by chemical inducers"}, "Arabidopsis seedlings [1]": {"system": "Arabidopsis seedlings", "test": "Seedling growth (fresh weight) on MS media supplemented with SA, elf18 or flg22", "format": "in vivo", "conditions": "WT plants; 10 days on MS with increasing concentrations of SA or 10 μM elf18", "method": "(Panel 11A) Fresh weight of ten seedlings grown for 10 days on plates with MS growth media (Ctrl), MS supplemented with increasing concentrations of SA or 10 μM elf18. Error bars represent the standard deviation of three replicates. This experiment was repeated three times with similar results. Statistical analysis was performed using the Student's t-test, *, p-value<0.05, **, p-value<0.01, ***, p-value≤0.001.\nFresh weight of ten seedlings grown for 10 days on plates with regular MS growth media (−f1g22) or MS supplemented with 10 μM f1g22 (+f1g22). Error bars represent standard deviation of three replicates. The experiment was repeated three times with similar results."}, "Psm ES4326": {"system": "Psm ES4326", "test": "Bacterial infection assay: SA- and MAMP-induced resistance to Psm ES4326 in Arabidopsis plants", "format": "in vivo, Pseudomonas syringae pv. maculicola", "conditions": "1 mM SA spray 24 hrs prior to infection, Psm ES4326 OD600nm=0.001", "method": "Infection of Arabidopsis plants with Pseudomonas syringae pv. maculicola (Psm) ES4326 was performed as described previously. To test for enhanced disease susceptibility, a bacterial suspension at OD600nm=0.0001 was infiltrated into 2-3 leaves per plant and 12 plants/genotype. Bacterial growth was quantified 3 days later. To test for SAR and MAMP-induced resistance, plants were pre-treated with relevant compounds (1 mM SA, spray 24 hrs prior to infection; 10 μM elf18, infiltration 2 hrs prior to infection; 10 μM flg22, infiltration 2 hrs prior to infection), and subsequently inoculated with Psm ES4326 (OD600nm=0.001) into 2-3 leaves per plant and 12 plants/genotype/treatment. Sampling was performed 3 days post inoculation."}, "Arabidopsis seedlings [2]": {"system": "Arabidopsis seedlings", "test": "Tunicamycin sensitivity assay (seedling recovery/survival)", "format": "in vivo", "conditions": "two-day treatment with tunicamycin at 300 μg/L, measured 10 days later", "method": "(Panel 11B) Seedling recovery after a two-day treatment with the UPR inducer tunicamycin at 300 μg/L was measured 10 days later by counting the percentage of surviving seedlings (left), and by phenotype observations (right). Error bars represent standard deviation of three replicates. This experiment was repeated five times with similar results. Statistical analysis was performed using the Student's t-test, ***, p-value≤0.001.\nThis assay was performed as described in earlier studies."}}}
{"compound": "CC/C=C\\C[C@H]1C(=O)CC[C@@H]1CC(=O)O", "note": "[jasmonic acid]", "values": [{"measurement": "induction of the TBF1 promoter", "setting": "TBF1 promoter", "value": "shown to induce the TBF1 promoter"}]}
{"compound": "CC1=CC(=O)CC(C)(C)[C@@]1(O)/C=C/C(C)=C\\C(=O)O", "note": "[abscisic acid]", "values": [{"measurement": "induction of the TBF1 promoter", "setting": "TBF1 promoter", "value": "shown to induce the TBF1 promoter"}]}
{"compound": "OC[C@@H](O)[C@@H](O)[C@H](O)[C@H](O)CO", "note": "[mannitol]", "values": [{"measurement": "induction of the TBF1 promoter", "setting": "TBF1 promoter", "value": "shown to induce the TBF1 promoter"}]}
{"compound": "CC/C=C\\CC1C(=O)CCC1CC(=O)OC", "note": "(centres unmarked) [methyl ester of jasmonic acid]", "values": [{"measurement": "induction of the TBF1 promoter", "setting": "TBF1 promoter", "value": "shown to induce the TBF1 promoter"}]}
{"compound": "C[C@@H]1C[C@@H]([C@H](O)CC2CC(=O)NC(=O)C2)C(=O)[C@@H](C)C1", "note": "[cycloheximide]", "values": [{"measurement": "induction of the TBF1 promoter", "setting": "TBF1 promoter", "value": "shown to induce the TBF1 promoter"}]}
{"compound": "O=C(O)c1ccccc1O", "note": "[SA, salicylic acid]", "values": [{"measurement": "growth of seedlings (fresh weight)", "setting": "Arabidopsis seedlings [1]", "value": "significantly inhibited"}, {"measurement": "induction of the TBF1 promoter", "setting": "TBF1 promoter", "value": "shown to induce the TBF1 promoter"}, {"measurement": "reduction in Psm ES4326 growth in response to induction by SA", "setting": "Psm ES4326; WT plants, 3 days post inoculation", "value": "~2", "unit": "log"}, {"measurement": "reduction in Psm ES4326 growth in response to induction by SA", "setting": "Psm ES4326; tbf1 mutant", "value": "less than 1 log"}]}
{"compound": "C=C", "note": "[ethylene]", "values": [{"measurement": "induction of the TBF1 promoter", "setting": "TBF1 promoter", "value": "shown to induce the TBF1 promoter"}]}
{"compound": "O=[N+]([O-])[O-].[Ag+]", "note": "[AgNO3]", "values": [{"measurement": "induction of the TBF1 promoter", "setting": "TBF1 promoter", "value": "shown to induce the TBF1 promoter"}]}
{"compound": "tunicamycin", "values": [{"measurement": "seedling survival rate", "setting": "Arabidopsis seedlings [2]; WT", "value": "~60", "unit": "%"}, {"measurement": "seedling survival rate", "setting": "Arabidopsis seedlings [2]; tbf1 mutant", "value": "~20", "unit": "%"}]}
{"compound": "[Cl-].[Na+]", "note": "[NaCl]", "values": [{"measurement": "induction of the TBF1 promoter", "setting": "TBF1 promoter", "value": "shown to induce the TBF1 promoter"}]}
